The test system of one experiment is KB. Briefly: Growth inhibition of human KB cells after 48 hrs by SRB assay. The experiment is classed as functional, cell-based.
The subject of a further experiment is A549. Briefly: Growth inhibition of human A549 cells after 48 hrs by SRB assay. Type of experiment: functional, cell-based. The note with it: A549, 48 h.
For the next experiment, the target named is Tubulin (Bos taurus, UniProt Q6B856+Q862L2+Q862F3).
Experiment [1] addresses T1, Polyamine deacetylase HDAC10 (Homo sapiens, UniProt Q969S8).
T1 sequence (Q969S8 whole entry): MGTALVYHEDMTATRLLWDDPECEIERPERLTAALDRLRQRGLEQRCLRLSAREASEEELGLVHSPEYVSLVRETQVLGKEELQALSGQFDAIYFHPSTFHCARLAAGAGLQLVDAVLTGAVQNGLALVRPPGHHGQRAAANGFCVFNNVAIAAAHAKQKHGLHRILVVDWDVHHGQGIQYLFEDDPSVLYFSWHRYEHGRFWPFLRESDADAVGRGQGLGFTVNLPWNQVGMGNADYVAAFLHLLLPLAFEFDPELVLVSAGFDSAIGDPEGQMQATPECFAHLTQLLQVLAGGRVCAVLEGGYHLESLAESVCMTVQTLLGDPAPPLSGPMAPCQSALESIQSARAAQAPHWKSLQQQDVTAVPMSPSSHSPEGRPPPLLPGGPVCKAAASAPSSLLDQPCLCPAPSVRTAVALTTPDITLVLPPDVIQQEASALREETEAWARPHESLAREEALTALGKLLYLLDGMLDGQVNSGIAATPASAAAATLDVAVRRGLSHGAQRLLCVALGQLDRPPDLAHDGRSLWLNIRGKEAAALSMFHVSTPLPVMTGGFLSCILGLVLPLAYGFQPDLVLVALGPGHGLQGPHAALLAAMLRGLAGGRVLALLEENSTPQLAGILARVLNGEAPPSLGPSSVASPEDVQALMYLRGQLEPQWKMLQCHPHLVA
Briefly: Inhibition of human HDAC10 using RHKKAc as substrate by fluorescence assay. The following applies: read-out: IC50.

In another experiment the target is Tubulin (Bos taurus) (UniProt Q6B856+Q862L2+Q862F3). The following applies: at 5 µM.
The next experiment addresses Histone deacetylase 4 (Homo sapiens, UniProt P56524). Briefly: Inhibition of human HDAC4 using fluorogenic p53-derived peptide RHKK(Ac) as substrate by fluorescence assay.
A further experiment deals with T2, Histone deacetylase 7 (Homo sapiens, UniProt Q8WUI4).
T2 sequence (Q8WUI4 whole entry): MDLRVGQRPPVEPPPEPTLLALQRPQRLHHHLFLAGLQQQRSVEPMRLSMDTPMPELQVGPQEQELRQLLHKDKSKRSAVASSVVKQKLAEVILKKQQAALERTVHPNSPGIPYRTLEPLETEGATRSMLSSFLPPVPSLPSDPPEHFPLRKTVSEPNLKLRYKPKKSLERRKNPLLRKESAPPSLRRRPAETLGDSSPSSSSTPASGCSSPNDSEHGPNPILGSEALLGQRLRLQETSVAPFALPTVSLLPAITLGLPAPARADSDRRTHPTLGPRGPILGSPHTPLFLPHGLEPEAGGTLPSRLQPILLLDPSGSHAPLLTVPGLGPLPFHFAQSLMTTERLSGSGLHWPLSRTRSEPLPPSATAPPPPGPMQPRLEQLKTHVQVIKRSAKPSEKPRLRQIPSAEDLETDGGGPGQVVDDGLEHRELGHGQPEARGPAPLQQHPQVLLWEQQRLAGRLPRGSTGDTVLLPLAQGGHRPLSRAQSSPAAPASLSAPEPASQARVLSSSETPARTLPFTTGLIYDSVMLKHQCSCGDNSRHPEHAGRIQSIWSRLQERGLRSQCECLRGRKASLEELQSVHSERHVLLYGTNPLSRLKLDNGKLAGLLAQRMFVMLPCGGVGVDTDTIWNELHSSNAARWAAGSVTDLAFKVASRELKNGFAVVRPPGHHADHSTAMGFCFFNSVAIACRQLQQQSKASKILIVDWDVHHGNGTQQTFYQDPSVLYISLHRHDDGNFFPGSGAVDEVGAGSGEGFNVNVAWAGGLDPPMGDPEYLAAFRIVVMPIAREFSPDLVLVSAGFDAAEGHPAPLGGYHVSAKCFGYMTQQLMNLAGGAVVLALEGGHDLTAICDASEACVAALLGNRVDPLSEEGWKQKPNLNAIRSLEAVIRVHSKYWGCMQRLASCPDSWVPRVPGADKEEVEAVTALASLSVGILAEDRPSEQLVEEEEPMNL
Briefly: Inhibition of human HDAC7 using fluorogenic p53 (379-382) peptide RHKK(Ac) as substrate by fluorescence assay.

The test system of experiment [2] is BJAB. Briefly: Growth inhibition of human BJAB cells assessed as cell viability at 5 nM after 48 hrs by MTT assay (reference value: 100%).
Experiment [3] deals with BJAB. Briefly: Growth inhibition of human BJAB cells assessed as cell viability at 40 nM after 48 hrs by MTT assay (reference value: 100%).

Histone deacetylase 4, sequence (P56524 whole entry): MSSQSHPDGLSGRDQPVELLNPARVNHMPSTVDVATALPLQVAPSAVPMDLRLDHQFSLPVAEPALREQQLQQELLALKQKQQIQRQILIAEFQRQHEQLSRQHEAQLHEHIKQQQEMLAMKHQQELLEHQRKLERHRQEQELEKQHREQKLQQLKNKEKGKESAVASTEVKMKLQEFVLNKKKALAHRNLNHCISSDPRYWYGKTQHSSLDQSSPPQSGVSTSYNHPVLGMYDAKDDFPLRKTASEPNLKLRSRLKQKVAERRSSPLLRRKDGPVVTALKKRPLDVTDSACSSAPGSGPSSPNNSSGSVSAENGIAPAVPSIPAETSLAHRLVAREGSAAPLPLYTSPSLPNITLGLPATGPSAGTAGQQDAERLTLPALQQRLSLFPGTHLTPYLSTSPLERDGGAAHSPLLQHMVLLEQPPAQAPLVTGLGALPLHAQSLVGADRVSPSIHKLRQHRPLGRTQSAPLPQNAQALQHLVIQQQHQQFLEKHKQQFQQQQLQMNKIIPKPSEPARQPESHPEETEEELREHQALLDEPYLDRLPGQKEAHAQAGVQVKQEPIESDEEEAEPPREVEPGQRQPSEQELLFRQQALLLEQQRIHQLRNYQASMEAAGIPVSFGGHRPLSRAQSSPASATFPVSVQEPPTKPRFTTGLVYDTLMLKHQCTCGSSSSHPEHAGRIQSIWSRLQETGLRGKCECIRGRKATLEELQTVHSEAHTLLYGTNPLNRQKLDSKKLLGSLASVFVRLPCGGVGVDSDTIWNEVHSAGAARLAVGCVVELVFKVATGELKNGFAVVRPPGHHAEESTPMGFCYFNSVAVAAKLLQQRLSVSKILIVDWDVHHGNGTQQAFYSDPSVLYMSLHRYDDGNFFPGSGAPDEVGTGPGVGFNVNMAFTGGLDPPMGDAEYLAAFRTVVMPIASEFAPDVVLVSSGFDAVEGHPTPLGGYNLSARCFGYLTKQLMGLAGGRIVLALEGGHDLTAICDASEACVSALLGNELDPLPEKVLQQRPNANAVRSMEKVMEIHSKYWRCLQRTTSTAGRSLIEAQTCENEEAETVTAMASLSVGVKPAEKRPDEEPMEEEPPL

For the compound `COc1ccc(S(=O)(=O)N2CCc3cccc(NCc4ccc(C(=O)Nc5ccccc5N)cc4)c32)cc1`, the IC50 was 0.049 µM in the experiment on KB; 0.079 µM in the experiment with A549; 1.1 µM at Tubulin; 10 µM in experiment [1]; “Not Active” against Histone deacetylase 4; “Not Active” against Histone deacetylase 7. This compound came in with an inhibition against Tubulin (Bos taurus) of 85.2%. Further, the viability at 0.005 µM in the experiment with BJAB [2] turned out to be 71%. Besides, the viability at 0.04 µM in the experiment on BJAB [3] worked out at 50%.

Values taken from ChEMBL document CHEMBL4382249, “1-Arylsulfonyl indoline-benzamides as a new antitubulin agents, with inhibition of histone deacetylase” (Eur J Med Chem, 2019).
